Columns and labels:
[1] = Microsomal stability (Rat); format: in vitro ADME; details: after 60 minutes
Protocol: (§1) Microsomal stability of disclosed compounds was investigated. The following table indicates the percent of compound remaining after 60 minutes.

[2] = IV pharmacokinetics in Sprague Dawley rats; format: in vivo; details: Sprague-Dawley, rat, in vivo, iv, 2 mg/kg, normal saline
Protocol: Sprague Dawley rats were dosed intravenously using a normal saline formulation containing 2 mg/kg of the compounds identified in the below table. The table below summarizes the results of the IV pharmacokinetics.

[3] = Oral pharmacokinetics in Sprague Dawley rats (plasma, brain, CSF); format: in vivo; details: rat, 10 mg/kg
Protocol: In another experiment, Sprague Dawley rats were dosed per os (oral gavage) using a normal saline formulation containing 10 mg/kg of the compounds identified in the table below. Plasma, brain, and CSF samples were analyzed at various time points over a 24 hour period. The table below summarizes the results of the oral pharmacokinetics, where the first three values (Tmax, Cmax and AUClast) are plasma values.

NMDAR2B = molecular target: T1, NMDAR2B (Homo sapiens, UniProt Q13224); assay: NMDAR agonist assay, [3H]MK-801 binding, NMDAR2B expressing HEK cell membranes; format: biochemical; details: 50 μM glutamate
T1 construct: expressed in transfected cells; host or cells: HEK cells (membrane extract)
T1 sequence (Q13224 27-1484, species assumed, other chains not shown): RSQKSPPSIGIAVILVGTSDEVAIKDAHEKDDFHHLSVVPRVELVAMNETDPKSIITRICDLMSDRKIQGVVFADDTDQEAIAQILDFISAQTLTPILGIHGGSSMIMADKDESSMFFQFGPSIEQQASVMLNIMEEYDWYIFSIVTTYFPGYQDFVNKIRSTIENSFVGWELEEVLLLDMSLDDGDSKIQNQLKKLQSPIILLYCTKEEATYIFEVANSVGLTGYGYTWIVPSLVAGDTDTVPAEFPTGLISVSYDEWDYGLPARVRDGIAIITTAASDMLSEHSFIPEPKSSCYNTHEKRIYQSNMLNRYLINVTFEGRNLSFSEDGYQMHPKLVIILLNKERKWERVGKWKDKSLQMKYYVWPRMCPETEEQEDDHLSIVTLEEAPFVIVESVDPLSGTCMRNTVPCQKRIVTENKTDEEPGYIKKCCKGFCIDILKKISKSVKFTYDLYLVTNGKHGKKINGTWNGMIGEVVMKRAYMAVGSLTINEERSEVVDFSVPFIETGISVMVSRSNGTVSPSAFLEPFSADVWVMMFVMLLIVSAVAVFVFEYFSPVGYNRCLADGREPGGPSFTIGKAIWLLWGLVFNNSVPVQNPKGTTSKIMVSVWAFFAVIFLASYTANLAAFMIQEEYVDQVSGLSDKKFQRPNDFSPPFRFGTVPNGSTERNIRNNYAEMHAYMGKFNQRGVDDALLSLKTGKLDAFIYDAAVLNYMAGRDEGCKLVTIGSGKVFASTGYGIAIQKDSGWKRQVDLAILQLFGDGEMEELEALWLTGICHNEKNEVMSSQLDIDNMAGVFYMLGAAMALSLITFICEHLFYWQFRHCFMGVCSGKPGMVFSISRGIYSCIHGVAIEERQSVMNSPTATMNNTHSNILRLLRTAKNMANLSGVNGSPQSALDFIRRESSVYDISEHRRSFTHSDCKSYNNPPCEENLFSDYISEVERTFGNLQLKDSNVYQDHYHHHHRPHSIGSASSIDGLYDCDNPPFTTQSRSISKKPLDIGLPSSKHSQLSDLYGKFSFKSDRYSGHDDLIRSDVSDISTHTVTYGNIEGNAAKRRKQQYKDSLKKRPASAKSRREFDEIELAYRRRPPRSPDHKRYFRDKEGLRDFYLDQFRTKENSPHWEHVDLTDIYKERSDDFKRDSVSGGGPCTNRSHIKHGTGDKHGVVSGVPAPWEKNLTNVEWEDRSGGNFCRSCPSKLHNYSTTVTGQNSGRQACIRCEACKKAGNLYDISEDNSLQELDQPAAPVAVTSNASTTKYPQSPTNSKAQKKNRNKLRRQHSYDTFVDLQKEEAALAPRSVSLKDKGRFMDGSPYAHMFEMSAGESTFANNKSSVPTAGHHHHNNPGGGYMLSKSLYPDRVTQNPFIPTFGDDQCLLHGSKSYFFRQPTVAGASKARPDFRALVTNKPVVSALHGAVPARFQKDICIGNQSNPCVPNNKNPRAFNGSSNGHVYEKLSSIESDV
How it was run: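 Membranes from HEK cells (300 μg protein) preincubated 15 min with 50 μM glutamate plus compound (1×10^−15–1×10^−7 M) or 1 mM glycine, then with 0.3 μCi [3H]MK-801 for 15 min at 25° C. (nonequilibrium); filter-bound DPM, baseline-subtracted, expressed as % of 1 mM glycine; EC50 and % maximum from three-parameter fit.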

[4] = Microsomal stability (Human); format: in vitro ADME; details: after 60 minutes
Protocol: as §1

NMDAR2C = molecular target: T2, NMDAR2C (Homo sapiens, UniProt Q14957); assay: NMDAR agonist assay, [3H]MK-801 binding, NMDAR2C expressing HEK cell membranes; format: biochemical; details: 50 μM glutamate; relative to 1 mM glycine
T2 construct: expressed in transfected cells; host or cells: HEK cells (membrane extract)
T2 sequence (Q14957 20-1233, species assumed, other chains not shown): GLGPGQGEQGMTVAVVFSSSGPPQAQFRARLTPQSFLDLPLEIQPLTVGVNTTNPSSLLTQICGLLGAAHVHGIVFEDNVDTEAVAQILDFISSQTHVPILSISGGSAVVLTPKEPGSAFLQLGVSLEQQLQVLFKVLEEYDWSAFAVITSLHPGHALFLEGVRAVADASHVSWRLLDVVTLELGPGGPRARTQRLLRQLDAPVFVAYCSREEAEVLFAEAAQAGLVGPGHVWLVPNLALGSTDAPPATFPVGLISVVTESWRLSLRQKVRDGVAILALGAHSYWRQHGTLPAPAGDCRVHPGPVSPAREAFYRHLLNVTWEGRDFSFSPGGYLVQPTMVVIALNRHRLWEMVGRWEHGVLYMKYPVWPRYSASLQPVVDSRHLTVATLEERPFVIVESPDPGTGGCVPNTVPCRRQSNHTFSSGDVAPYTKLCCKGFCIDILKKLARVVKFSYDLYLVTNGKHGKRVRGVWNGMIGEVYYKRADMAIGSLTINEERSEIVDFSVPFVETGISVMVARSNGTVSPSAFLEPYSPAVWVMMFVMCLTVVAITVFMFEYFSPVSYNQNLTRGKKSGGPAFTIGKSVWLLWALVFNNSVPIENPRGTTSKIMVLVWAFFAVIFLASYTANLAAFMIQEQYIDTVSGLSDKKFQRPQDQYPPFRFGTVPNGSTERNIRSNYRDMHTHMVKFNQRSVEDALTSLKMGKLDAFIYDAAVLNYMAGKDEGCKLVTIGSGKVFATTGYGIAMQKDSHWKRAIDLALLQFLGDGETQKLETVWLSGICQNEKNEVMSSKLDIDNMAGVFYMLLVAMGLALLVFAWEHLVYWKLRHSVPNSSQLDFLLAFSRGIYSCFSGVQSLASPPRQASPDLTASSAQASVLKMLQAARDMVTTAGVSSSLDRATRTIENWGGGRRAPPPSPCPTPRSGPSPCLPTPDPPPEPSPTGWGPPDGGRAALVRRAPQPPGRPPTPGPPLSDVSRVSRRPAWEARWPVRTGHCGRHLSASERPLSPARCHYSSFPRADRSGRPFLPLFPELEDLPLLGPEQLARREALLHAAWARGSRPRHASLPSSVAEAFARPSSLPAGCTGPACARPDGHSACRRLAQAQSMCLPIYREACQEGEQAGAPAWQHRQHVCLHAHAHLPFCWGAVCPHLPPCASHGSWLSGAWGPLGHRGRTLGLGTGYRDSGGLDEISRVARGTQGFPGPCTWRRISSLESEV
Protocol: Assays were conducted as described by Moskal et al., “GLYX-13: a monoclonal antibody-derived peptide that acts as an N-methyl-D-aspartate receptor modulator,” Neuropharmacology, 49, 1077-87, 2005. These studies were designed to determine if the test compounds act to facilitate NMDAR activation in NMDAR2A, NMDAR2B, NMDAR2C or NMDAR2D expressing HEK cell membranes as measured by increases in [^3H]MK-801 binding.
In the assay, 300 μg of NMDAR expressing HEK cell membrane extract protein was preincubated for 15 minutes at […] in the presence of saturating concentrations of glutamate (50 μM) and varying concentrations of test compound (1×10^−15M-1×10^−7M), or 1 mM glycine. Following the addition of 0.3 μCi of [3H]MK-801 (22.5 Ci/mmol), reactions were again incubated for 15 minutes at 25° C. (nonequilibrium conditions). Bound and free [3H]MK-801 were separated via rapid filtration using a Brandel apparatus.
In analyzing the data, the DPM (disintegrations per minute) of [3H]MK-801 remaining on the filter were measured for each concentration of test compound or for 1 mM glycine. The DPM values for each concentration of a ligand (N=2) were averaged. The baseline value was determined from the best fit curve of the DPM values modeled using the GraphPad program and the log(agonist) vs. response (three parameters) algorithm was then subtracted from all points in the dataset. The % maximal [^3H]MK-801 binding was then calculated relative to that of 1 mM glycine: all baseline subtracted DPM values were divided by the average value for 1 mM glycine. The EC50 and % maximal activity were then obtained from the best fit curve of the % maximal [3H]MK-801 binding data modelled using the GraphPad program and the log(agonist) vs. response (three parameters) algorithm.
The tables below summarize the results for the wild type […] NMDAR2A, NMDAR2B, NMDAR2C, and NMDAR2D, and whether the compound is not an agonist (−), is an agonist (+), or is a strong agonist (++), where column A is based on the % maximal [3H]MK-801 binding relative to 1 mM glycine (−=0; <100%=+; and >100%=++); and column B is based on log EC50 values (0=−; ≥1×10^−9 M (e.g., −8)=+; and <1×10^−9 M (e.g., −10)=++).

Sprague Dawley rats = assay: Porsolt forced swim test; format: in vivo

With `O=C1NCC=CC[C@]12CCCN2` [GA, (R)-1,7-diazaspiro[4.6]undec-9-en-6-one] the “Microsomal (Rat): percent of compound remaining” value [1] was 90%, the AUC(0-t) [2] was 1250 ng·h/mL and the clearance [2] was 27 mL/min/kg. The half-life [2] was 3.6 h, the Cmax ([2]; read-out: Cmax) was 1470 ng/mL and the Vd ([2]; read-out: Vss) was 3.92 L/kg. It also gave a Tmax ([3]; Sprague-Dawley, po, per os, plasma, read-out: Tmax) of 0.5 h, an AUC(0-t) ([3]; Sprague-Dawley, plasma, po, per os) of 3860 ng·h/mL and a bioavailability ([3]; Sprague-Dawley, plasma, po, per os 10 mg/kg) of 62%. For the same compound, the Cmax ([3]; Sprague-Dawley, plasma, po, per os, plasma, read-out: Cmax) was 1960 ng/mL, the “CSF Cmax” value ([3]; per os, CSF) was 551.3 ng/mL and the “Brain Cmax” value ([3]; per os, brain) was 3963.2 ng/mL. For the same compound, the EC50 (NMDAR2B; read-out: NMDAR2B B: log EC50 (converted)) was ≥ 1 nM, the Emax (NMDAR2B; relative to 1 mM glycine, read-out: NMDAR2B A: % maximal [3H]MK-801 binding relative to 1 mM glycine) was < 100% and the “Microsomal (Human): percent of compound remaining” value [4] was 94%. The “NMDAR2C A: % maximal [3H]MK-801 binding relative to 1 mM glycine” value (NMDAR2C) was 0%, the “% reduction in float time” value (Sprague Dawley rats; 1 wk post-dose, 0.00001 mg/kg) was 55% and the Significance vs. vehicle (Sprague Dawley rats; 1 wk post-dose, 0.00001 mg/kg) was “Yes”. For the same compound, the “% reduction in float time” value (Sprague Dawley rats; 1 wk post-dose, 0.001 mg/kg) was 71%, the Significance vs. vehicle (Sprague Dawley rats; 1 wk post-dose, 0.001 mg/kg) was “Yes” and the “% reduction in float time” value (Sprague Dawley rats; 1 wk post-dose, 0.1 mg/kg) was 72%. The Significance vs. vehicle (Sprague Dawley rats; 1 wk post-dose, 0.1 mg/kg) was “Yes”, the “% reduction in float time” value (Sprague Dawley rats; 1 wk post-dose, 10.0 mg/kg) was 44% and the Significance vs. vehicle (Sprague Dawley rats; 1 wk post-dose, 10.0 mg/kg) was “Yes”. The “% reduction in float time” value (Sprague Dawley rats; 1 h post-dose, 0.00001 mg/kg) was 29%, the Significance vs. vehicle (Sprague Dawley rats; 1 h post-dose, 0.00001 mg/kg) was “No” and the “% reduction in float time” value (Sprague Dawley rats; 1 h post-dose, 0.001 mg/kg) was 58%. The Significance vs. vehicle (Sprague Dawley rats; 1 h post-dose, 0.001 mg/kg) was “Yes”, the “% reduction in float time” value (Sprague Dawley rats; 1 h post-dose, 0.1 mg/kg) was 67% and the Significance vs. vehicle (Sprague Dawley rats; 1 h post-dose, 0.1 mg/kg) was “Yes”. For the same compound, the “% reduction in float time” value (Sprague Dawley rats; 1 h post-dose, 10.0 mg/kg) was 50%, the Significance vs. vehicle (Sprague Dawley rats; 1 h post-dose, 10.0 mg/kg) was “No” and the “% reduction in float time” value (Sprague Dawley rats; 24 h post-dose, 0.1 mg/kg) was 64%. The Significance vs. vehicle (Sprague Dawley rats; 24 h post-dose, 0.1 mg/kg) was “Yes”.

From patent US20210047324A1 (Aptinyx Inc., priority 2018, published 2021)
